Consider 23 molecules from patent publication US20150344457A1, “METHODS OF INHIBITING PRMT5” (EPIZYME, INC., priority 2012, published 2015).

Molecules are shown by their SMILES. pIC50: −log10 of the molar value.

What is called pIC50 is −log10 of the IC50, conventionally taken in molar units.

For the assay, the target named is T1, PRMT5/MEP50 (Homo sapiens, UniProt O14744).
T1 construct: Expressed full-length human Flag-PRMT5/6His-MeP50 protein complex was purified; made in house; host or cells: Spodoptera frugiperda (SF9) insect cells, baculovirus (pDEST8)
T1 sequence (O14744 with tags, fused parts or gaps): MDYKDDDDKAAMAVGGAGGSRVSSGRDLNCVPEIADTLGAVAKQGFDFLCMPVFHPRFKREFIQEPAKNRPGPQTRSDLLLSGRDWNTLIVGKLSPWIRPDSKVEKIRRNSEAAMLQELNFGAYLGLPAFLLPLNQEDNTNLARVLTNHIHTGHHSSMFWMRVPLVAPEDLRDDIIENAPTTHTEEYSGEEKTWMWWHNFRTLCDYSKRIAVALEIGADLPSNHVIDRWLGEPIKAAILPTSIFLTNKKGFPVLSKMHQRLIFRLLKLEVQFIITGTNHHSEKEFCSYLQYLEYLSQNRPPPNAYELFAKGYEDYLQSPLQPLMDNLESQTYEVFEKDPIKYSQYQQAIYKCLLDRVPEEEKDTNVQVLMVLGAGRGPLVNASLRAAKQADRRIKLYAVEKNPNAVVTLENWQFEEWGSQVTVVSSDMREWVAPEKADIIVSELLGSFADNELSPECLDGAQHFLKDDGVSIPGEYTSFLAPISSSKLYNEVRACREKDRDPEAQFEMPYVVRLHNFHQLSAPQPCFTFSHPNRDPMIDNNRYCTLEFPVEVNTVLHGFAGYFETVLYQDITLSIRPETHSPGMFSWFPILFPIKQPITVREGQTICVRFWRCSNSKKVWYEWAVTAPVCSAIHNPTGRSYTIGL
T1 sequence (Q9BQA1 with tags, fused parts or gaps partner limits assumed): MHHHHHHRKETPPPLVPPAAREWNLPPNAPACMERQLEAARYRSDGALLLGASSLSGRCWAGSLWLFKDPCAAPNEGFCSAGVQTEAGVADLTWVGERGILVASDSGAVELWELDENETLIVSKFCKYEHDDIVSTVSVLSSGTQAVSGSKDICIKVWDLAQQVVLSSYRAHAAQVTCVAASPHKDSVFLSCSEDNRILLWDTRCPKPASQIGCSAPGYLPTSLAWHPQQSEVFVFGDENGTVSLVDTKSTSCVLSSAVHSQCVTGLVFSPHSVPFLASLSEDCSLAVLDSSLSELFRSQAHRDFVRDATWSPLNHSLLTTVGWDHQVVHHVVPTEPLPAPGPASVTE
Nature of the assay: PRMT5 Biochemical Assay (PRMT5/MEP50 enzyme assay on peptide substrate, 3H-SAM Flashplate). Particulars: Table A-2; PRMT5/MEP50 4 nM, 3H-SAM 75 nM, peptide 40 nM; read-out: Biochemical IC50.
Turning to `CS(=O)(=O)N1CCN(c2ccccc2OCC(=O)NCC(O)CN2CCc3ccccc3C2)CC1` (centres unmarked) [Compound A106], the pIC50 was 6.00 to 7.00.

In the case of `O=C(COc1ccccc1S(=O)(=O)N1CCNCC1)NCC(O)CN1CCc2ccccc2C1` (centres unmarked) [Compound A107], the pIC50 is over 7.00.

Take `CN1CCN(S(=O)(=O)c2ccccc2OCC(=O)NCC(O)CN2CCc3ccccc3C2)CC1` (centres unmarked) [Compound A108]: the pIC50 is over 7.00.

On to `CN(C)S(=O)(=O)c1ccccc1OCC(=O)NCC(O)CN1CCc2ccccc2C1` (centres unmarked) [Compound A109], for which the pIC50 is over 7.00.

Consider `O=C(COc1ccccc1S(=O)(=O)N1CCCC1)NCC(O)CN1CCc2ccccc2C1` (centres unmarked) [Compound A110], for which the pIC50 is over 7.00.

`O=C(COc1ccccc1S(=O)(=O)N1CCC(O)C1)NCC(O)CN1CCc2ccccc2C1` (centres unmarked) [Compound A111]: the pIC50 was over 7.00.

`CNC(=O)c1ccccc1OCC(=O)NCC(O)CN1CCc2ccccc2C1` (centres unmarked) [Compound A112]: the pIC50 is 6.00 to 7.00.

For the molecule `CN(C)C(=O)c1ccccc1OCC(=O)NCC(O)CN1CCc2ccccc2C1` (centres unmarked) [Compound A113], the pIC50 is 6.00 to 7.00.

In the case of `CC(Oc1ccccc1S(C)(=O)=O)C(=O)NCC(O)CN1CCc2ccccc2C1` (centres unmarked) [Compound A114], the pIC50 was 6.00 to 7.00.

As to `O=C(COc1ccccc1C1CCNC1)NCC(O)CN1CCc2ccccc2C1` (centres unmarked) [Compound A116], the pIC50 is 5.00 to 6.00.

As for `O=C(COc1ccccc1C1CCCNC1)NCC(O)CN1CCc2ccccc2C1` (centres unmarked) [Compound A117], the pIC50 was 6.00 to 7.00.

Turning to `Cn1cc2c(OCC(=O)NCC(O)CN3CCc4ccccc4C3)cccc2n1` (centres unmarked) [Compound A118], the pIC50 was 6.00 to 7.00.

On to `O=C(COc1cccc2c1CNCC2)NCC(O)CN1CCc2ccccc2C1` (centres unmarked) [Compound A119], for which the pIC50 is over 7.00.

With `CN1CCc2cccc(OCC(=O)NCC(O)CN3CCc4ccccc4C3)c2C1` (centres unmarked) [Compound A120], the negative logarithm of the IC50 (pIC50) was 6.00 to 7.00.

As for `CC(=O)N1CCN(S(=O)(=O)c2ccccc2OCC(=O)NCC(O)CN2CCc3ccccc3C2)CC1` (centres unmarked) [Compound A122], the pIC50 was 6.00 to 7.00.

For the molecule `CNS(=O)(=O)c1ccccc1OCC(=O)NCC(O)CN1CCc2ccccc2C1` (centres unmarked) [Compound A123], the negative logarithm of the IC50 (pIC50) is over 7.00.

Take `O=C(COc1cccc2c1OCC(=O)N2)NCC(O)CN1CCc2ccccc2C1` (centres unmarked) [Compound A124]: the pIC50 is 5.00 to 6.00.

As to `CN(C)c1ncccc1OCC(=O)NCC(O)CN1CCc2ccccc2C1` (centres unmarked) [Compound A127], the pIC50 is 6.00 to 7.00.

Turning to `O=C(COc1cccc2ncc(=O)[nH]c12)NCC(O)CN1CCc2ccccc2C1` (centres unmarked) [Compound A129], the pIC50 is 6.00 to 7.00.

`CN1CCCC(c2ccccc2OCC(=O)NCC(O)CN2CCc3ccccc3C2)C1` (centres unmarked) [Compound A130]: the pIC50 was over 7.00.

Turning to `CN1CCC(c2ccccc2OCC(=O)NCC(O)CN2CCc3ccccc3C2)CC1` (centres unmarked) [Compound A134], the pIC50 is 6.00 to 7.00.

Regarding `O=C(COc1ccccc1-c1ncc[nH]1)NCC(O)CN1CCc2ccccc2C1` (centres unmarked) [Compound A137], the pIC50 was 6.00 to 7.00.

For `CN(c1cccc(OCC(=O)NCC(O)CN2CCc3ccccc3C2)c1)S(C)(=O)=O` (centres unmarked) [Compound A142], the pIC50 was 6.00 to 7.00.
